The target of test [1] is T1, Src (p60c-src, partially purified, Upstate) (Homo sapiens, UniProt P12931).
T1 construct: purchased UBI, Upstate Biotech, Inc
Briefly: SRC-Inhibitor-Assay, time-resolved fluorescence kinase assay (Src). Format: biochemical. The note with it: ATP 5 μM; peptide 10 μM; enzyme pre-incubated 15 min at 15° C. with inhibitor. As to the method: (§1) SRC-Inhibitor-Assay Parameters:
(§2) Peptides: Ro: NH2-A-E-E-E-I—Y-G-E-F-E-A-K—K—K—K—CONH2, and
(§3) • Ja133-Ro: Ja133-G-Aminocaprylic acid-A-E-E-E-I—Y-G-E-F-E-A-K—K—K—K—CONH2, wherein Ja133 is LightCycler-Red 640-N-hydroxy succinimide ester; • whereby both peptides were synthesized by an optimized solid phase peptide synthesis protocol (Merrifield, Fed. Proc. Fed. Amer. Soc. Exp. Biol. 21 (1962) 412) on a Zinsser SMP350 peptide synthesizer. Shortly, the peptide was assembled on 160 mg (22.8 μmol scale) of a Rink-Linker modified polystyrene solid phase by repeatedly conjugating an twenty fold excess of amino acids each protected by temporary piperidine labile Fmoc- and permanent acid labile tert-Bu-, BOC- and O-tert-Bu-groups depending on the side chain function. The substrate sequence […] was N-terminal additionally mounted with the spacer amino acids Aminocaprylic acid and Glycin. After cleavage of the N-terminal temporary protecting group the still attached and protected peptide was labeled with a 1.5 fold amount of LightCycler-Red 640-N-hydroxy succinimide ester (purchased from Roche Diagnostics GmbH) and triethylamine. After 3 hrs. the resin was washed with Dimethylformamide and Isopropanol until the eluates of the blue resin got colourless. […] The substrate was finally isolated by a preparative reverse phase HPLC purification.
(§4) ATP, Tween 20, 4-(2-hydroxyethyl)-1-piperazineethanesulfonic acid (HEPES) were purchased from Roche Molecular Biochemicals, MgCl2 and MnCl2 were purchased from Merck Eurolab, Tris(2-carboxyethyl)phosphine hydrochloride (TCEP) was purchased from Pierce, 384 Well low volume fluorescence plates was purchased from Falcon.
(§5) At first the enzyme is pre-incubated for 15 min. at 15° C. in aqueous solution with corresponding amounts of inhibitors according to this invention. Then the phosphorylation reaction is started by adding a reaction mixture, containing ATP, Peptide and PT66, and subsequent shaking. The proceeding of this reaction is immediately monitored using time resolved fluorescence spectroscopy in a suitable well plate reader.
(§6) The IC50-values can be obtained from the reaction rates by using a non-linear curve fit (XLfit software (ID Business Solution Ltd., Guilford, Surrey, UK))

For test [2], the target named is T2, Lck (p56lck, active, Upstate) (Homo sapiens, UniProt P06239).
T2 construct: purchased UBI, Upstate Biotech, Inc
Briefly: SRC-Inhibitor-Assay, time-resolved fluorescence kinase assay (Lck). Type of test: biochemical. Particulars: ATP 5 μM; peptide 10 μM; enzyme pre-incubated 15 min at 15° C. with inhibitor.
From the text: The activity of the compounds according to this invention as protein kinase inhibitors, in particular for the src-family tyrosine kinases, was shown by using the following assay.
as §1
Eu-labelled phosphotyrosine antibody:—for Lck Cisbio Mab PT66-K, • for Src EG&G Wallac PT66 Eu-W1024 (all commercially available).
as §2
as §3, with “purification. The purification yielded 12.2 mg RP-HPLC single peak pure blue material (lyophilisate). The identity was proven by MALDI mass spectroscopy [2720.0]. • Enzymes: Upstate Lck (p56^lck, active), Upstate Src (p60^c-src, partially purified) were purchased from UBI, Upstate Biotech, Inc. Time-resolved Fluorescence Assay: Reader: Perkin Elmer, Wallac Viktor 1420-040 multilabel counter; Liquid handling system: Beckman Coulter, Biomek 2000.” for “purification.”
as §4, §5, §6

This passage reports IC50 results from patent US20090227578A1, “Azabenzimidazole Derivatives, Their Manufacture and Use as Anti-Cancer Agents” (priority 2005, published 2009).

T2 sequence (P06239 whole entry): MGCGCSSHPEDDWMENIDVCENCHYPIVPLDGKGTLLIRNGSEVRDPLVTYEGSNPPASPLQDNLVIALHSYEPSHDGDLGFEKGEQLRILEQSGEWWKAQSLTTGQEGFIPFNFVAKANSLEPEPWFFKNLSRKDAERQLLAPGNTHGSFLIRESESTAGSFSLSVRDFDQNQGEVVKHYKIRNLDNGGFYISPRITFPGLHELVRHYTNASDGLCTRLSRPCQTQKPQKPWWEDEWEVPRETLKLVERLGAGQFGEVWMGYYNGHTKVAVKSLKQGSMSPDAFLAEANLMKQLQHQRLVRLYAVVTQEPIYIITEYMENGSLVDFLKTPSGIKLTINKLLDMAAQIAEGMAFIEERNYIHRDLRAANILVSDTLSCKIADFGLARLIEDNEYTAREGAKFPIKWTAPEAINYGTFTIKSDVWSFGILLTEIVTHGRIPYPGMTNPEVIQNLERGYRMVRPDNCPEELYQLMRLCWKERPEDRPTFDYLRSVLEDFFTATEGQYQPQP
T1 sequence (P12931 whole entry): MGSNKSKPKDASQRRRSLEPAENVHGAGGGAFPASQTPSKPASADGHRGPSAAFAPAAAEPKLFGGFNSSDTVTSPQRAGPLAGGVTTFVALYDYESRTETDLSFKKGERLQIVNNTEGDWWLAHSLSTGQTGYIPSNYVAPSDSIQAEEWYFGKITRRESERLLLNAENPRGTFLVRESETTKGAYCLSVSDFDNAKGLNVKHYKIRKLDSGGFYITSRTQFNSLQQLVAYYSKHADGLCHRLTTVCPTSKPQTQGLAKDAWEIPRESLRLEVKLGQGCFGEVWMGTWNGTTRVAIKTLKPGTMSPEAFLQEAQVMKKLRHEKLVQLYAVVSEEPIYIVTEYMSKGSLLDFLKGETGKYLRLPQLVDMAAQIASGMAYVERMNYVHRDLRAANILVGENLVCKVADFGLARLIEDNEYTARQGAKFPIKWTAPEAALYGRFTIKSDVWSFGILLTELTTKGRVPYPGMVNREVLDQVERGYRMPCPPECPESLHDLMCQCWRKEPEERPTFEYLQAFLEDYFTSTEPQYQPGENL

Take `Cc1ccc(NC(=O)/C=C/c2ccncc2)cc1C(=O)Nc1cnc2[nH]c(-c3ccccc3)nc2c1` [Example 1-1, 2-Methyl-N-(2-phenyl-3H-imidazo[4,5-b]pyridin-6-yl)-5-((E)-3-pyridin-4-yl-acryloylamino)-benzamide]: the IC50 (usually the concentration at which inhibition is half-maximal) is 100 to 1000 nM in test [1] and 10 to 100 nM in test [2].

In the case of `Cc1ccc(NC(=O)/C=C/c2cccnc2)cc1C(=O)Nc1cnc2[nH]c(-c3ccccc3)nc2c1` [Example 1-2, 2-Methyl-N-(2-phenyl-3H-imidazo[4,5-b]pyridin-6-yl)-5-((E)-3-pyridin-3-yl-acryloylamino)-benzamide], the IC50 in test [1] and in test [2] was 10 to 100 nM throughout.

Take `Cc1ccc(NC(=O)c2ccc(N3CCOCC3)cc2)cc1C(=O)Nc1cnc2[nH]c(-c3ccccc3)nc2c1` [Example 1-3, 2-Methyl-5-(4-morpholin-4-yl-benzoylamino)-N-(2-phenyl-3H-imidazo[4,5-b]pyridin-6-yl)-benzamide]: the IC50 turned out to be 43 nM in test [1] and 64 nM in test [2].

Turning to `Cc1ccc(NC(=O)/C=C/c2ccccc2)cc1C(=O)Nc1cnc2[nH]c(-c3ccccc3)nc2c1` [Example 1-4, 2-Methyl-5-[(E)-(3-phenyl-acryloyl)amino]-N-(2-phenyl-3H-imidazo[4,5-b]pyridin-6-yl)-benzamide], the IC50 in test [1] and in test [2] was 10 to 100 nM throughout.

With `Cc1ccc(NC(=O)c2ccccc2)cc1C(=O)Nc1cnc2[nH]c(-c3ccccc3)nc2c1` [Example 1-5, 5-Benzoylamino-2-methyl-N-(2-phenyl-3H-imidazo[4,5-b]pyridin-6-yl)-benzamide], the concentration for half-maximal inhibition (IC50) in test [1] and in test [2] was 10 to 100 nM throughout.

On to `Cc1ccc(NC(=O)c2cccc(-c3ccccc3)c2)cc1C(=O)Nc1cnc2[nH]c(-c3ccccc3)nc2c1` [Example 1-6, Biphenyl-3-carboxylic acid[4-methyl-3-(2-phenyl-3H-imidazo[4,5-b]pyridin-6-ylcarbamoyl)-phenyl]-amide], for which the IC50 in test [1] fell in the range of 10 to 100 nM; in test [2] it was 100 to 1000 nM.

Turning to `O=C(Nc1ccc(Cl)c(C(=O)Nc2cnc3[nH]c(-c4ccccc4)nc3c2)c1)c1ccc(N2CCOCC2)cc1` [Example 2-1, 2-Chloro-5-(4-morpholin-4-yl-benzoylamino)-N-(2-phenyl-3H-imidazo[4,5-b]pyridin-6-yl)-benzamide], the IC50 in test [1] and in test [2] was 10 to 100 nM throughout.

`O=C(/C=C/c1ccccc1)Nc1ccc(Cl)c(C(=O)Nc2cnc3[nH]c(-c4ccccc4)nc3c2)c1` [Example 2-2, 2-Chloro-5-[(E)-(3-phenyl-acryloyl)amino]-N-(2-phenyl-3H-imidazo[4,5-b]pyridin-6-yl)-benzamide]: in test [2], the concentration for half-maximal inhibition (IC50) lay in the range of 10 to 100 nM.

With `O=C(Nc1ccc(Cl)c(C(=O)Nc2cnc3[nH]c(-c4ccccc4)nc3c2)c1)c1cccc(-c2ccccc2)c1` [Example 2-4, Biphenyl-3-carboxylic acid[4-chloro-3-(2-phenyl-3H-imidazo[4,5-b]pyridin-6-ylcarbamoyl)-phenyl]-amide], the IC50 in test [1] was found to be 64 nM; in test [2], 200 nM.

On to `O=C(Nc1ccc(Cl)c(C(=O)Nc2cnc3[nH]c(-c4ccccc4)nc3c2)c1)c1ccccc1` [Example 2-5, 5-Benzoylamino-2-chloro-N-(2-phenyl-3H-imidazo[4,5-b]pyridin-6-yl)-benzamide], for which, in test [2], the half-inhibitory concentration (IC50) is 10 to 100 nM.
